Legend:
Type in all cases: in vivo
housefly [1] = experiment: Insecticidal activity against housefly (Filter paper bait and contact method); conditions: Musca domestica; 500 ppm, 48 hours, adult female houseflies; read-out: Mortality
Procedure: Each 20 parts of the present compounds No. 1 to No. 29, 10 parts of an emulsifier (Sorpol 3005X; trademark for Toho Chemical Co.) and 70 parts of xylene are thoroughly mixed by stirring to obtain an emulsifiable concentrate of each compound.
A piece of filter paper, 5.5 cm in diameter, was laid on the bottom of a polyethylene cup of the identical inner diameter. An emulsifiable concentrate prepared in the same manner as in Preparation Example 2 was diluted with water. To the filter paper, was added dropwise 0.7 ml of the diluted sample (500 ppm in concentration). Sucrose (30 mg) was placed on the filter paper to serve as bait. Ten adult female houseflies were released into the cup, closed with a cover, and observed for the number of dead and alive insects after 48 hours to calculate the mortality (2 replications).

housefly [2] = experiment: Activity of oil spray against adult housefly (glass chamber); conditions: oil spray 0.5 ml, 10 minutes exposure; for mortality, House fly: observed on the following day, 1440 min
Procedure: (§1) 0.1 Part of each compound Nos. 10, 12, 15, 17, 18, 19, 22, 23 and 29 of this invention is dissolved in deodorized kerosene and made up to 100 parts with kerosene to obtain an oil spray.
(§2) Ten adult houseflies and ten adult female northern house mosquitos were released in a glass chamber, 70×70×70 cm in size. An oil spray preparation (0.5 ml) obtained in Preparation Example 1 was sprayed inside the chamber and the insects were exposed to the descending mist for 10 minutes, during which time the number of knocked-down insects was counted at predetermined time intervals to determine the 50% knockdown time (KT50). On the following day, the dead and alive insects were observed.

northern house mosquito [3] = experiment: Activity of oil spray against adult female northern house mosquito (glass chamber); conditions: for mortality, Northern house mosquito: in vivo, 24 h; for KT50 (50% knockdown time), Northern house mosquito: oil spray 0.5 ml, 10 minutes exposure
Procedure: as §1, §2

northern house mosquito [4] = experiment: Mosquito coil knockdown of adult female northern house mosquitos
Procedure: Each 0.6 g of the present compounds Nos. 10, 16 and 27 is dissolved in 20 ml of methanol and uniformly mixed with 99.4 g of a carrier for mosquito coils (a mixture of Tabu powder, pyrethrum marc and wood powder in a proportion of 3:5:1) by thorough stirring. After evaporation of methanol and addition of 150 ml of water, the mixture is thoroughly kneaded, then molded, and dried to obtain a mosquito coil.
About 50 adult female northern house mosquitos were released into a glass chamber, 70×70×70 cm, and a battery-operated small fan (diameter of rotation of the vane: 13 cm) disposed in the cabinet was operated. A mosquito coil obtained in Preparation Example 6 was ignited at both ends and placed at the center of bottom of the chamber. After 20 minutes, the number of knocked down insects was counted.

Compound	mortality at 500 ppm (housefly [1]) [%]	KT50 (50% knockdown time), House fly (housefly [2]) [s]	mortality, House fly (housefly [2]) [%]	mortality, Northern house mosquito (northern house mosquito [3]) [%]	KT50 (50% knockdown time), Northern house mosquito (northern house mosquito [3]) [s]	Percent knocked down insects after 20 minutes (northern house mosquito [4]) [%]
C#CCC1=C(C)C(OC(=O)C2C(C)(C)C23Cc2ccccc2C3)CC1=O (centres unmarked) [Compound 10]	100	210	30	100	320	94
C=CCC1=C(C)C(OC(=O)C2C(C)(C)C23Cc2ccccc2C3)CC1=O (centres unmarked) [Compound 15]	100	250	20	95	300	90
C#CC(OC(=O)C1C(C)(C)C12Cc1ccc(F)cc1C2)C(C)=CCC (centres unmarked) [Compound 27]	100	–	–	–	–	10

— patent publication US4480118A, “Carboxylic acid ester and an insecticidal and/or acaricidal composition containing the same” (priority 1981, dated 1984)
